Several values for one entry are separate records, joined by “and”; a condition that tells them apart may be missing. Identical values can stand only once.
Assays:
Assay type in all cases: physicochemical
[1] = Liposome size by intensity, dynamic light scattering (silyl-DOTAP liposomes); conditions: for size by intensity when excluding large aggregate/outlier / size (size by intensity, average ± standard deviation): 1 mg/mL in Milli Q water; for size by intensity when excluding large aggregate/outlier / large aggregate/outlier in size by intensity distribution of one trial / size (size by intensity, average ± standard deviation): DLS; for size by intensity when excluding large aggregate/outlier: outlier trial peak excluded; for large aggregate/outlier in size by intensity distribution of one trial: one of three trials; for size (size by intensity, average ± standard deviation): three liposome solutions, thin film hydration/bath sonication, all trials; for average LNP size compared with DOTAP: comparison in words
Protocol: (§1) FIGS. 8A, 8B, and 8C show the measured size, zeta potential, and RNA encapsulation efficiency (EE) of lipid nanoparticles (LNPs) containing silyl-DOTAP lipids, compared with traditional DOTAP-derived LNPs. The data in FIG. 8A were obtained from three liposome solutions, whereupon the average size was determined using dynamic light scattering (DLS). The data in FIG. 8B were obtained from three liposome solutions, whereupon the average zeta potential was determined using dynamic light scattering (DLS). The data in FIG. 8C represent RNA encapsulation efficiency, determined for each lipid using the Quant-It RiboGreen fluorescence assay.
(§2) FIGS. 8A, 8B, and 8C provide an analysis of size, zeta potential, and RNA encapsulation efficiency (EE) of lipid nanoparticles (LNPs) composed of silyl-DOTAP lipids, compared with traditional DOTAP-derived LNPs. The data in FIG. 8A were obtained from three liposome solutions (1 mg/mL in Milli Q water) for each lipid, which were formed via thin film hydration/bath sonication and the average size by intensity was determined using dynamic light scattering (DLS). The data in FIG. 8B were obtained from three liposome solutions (1 mg/mL in Milli Q water) for each lipid, which were formed via thin film hydration/bath sonication and the average zeta potential was determined using dynamic light scattering (DLS).
(§3) The values shown are the average standard deviation size by intensity, zeta potential, and RNA EE shown in FIGS. 8A to 8C for each lipid. Footnotes: a: One trial corresponds to one liposome solution (1 mg/ml). […] DOTAP is 198 nm and 8SiPh is 183±65 nm when excluding this large aggregate/outlier.

RNA standard = test: RNA encapsulation efficiency, Quant-It RiboGreen fluorescence assay; conditions: for RNA EE (RNA encapsulation efficiency): RNA-lipid complex 10:1 wt/wt lipid/RNA, 15 min room temperature, three aliquots; for RNA EE compared with DOTAP: comparison in words
Protocol: as §1
The data in FIG. 8C represent RNA encapsulation efficiency. One RNA-lipid complex solution (10:1 wt/wt lipid/RNA) was formed for each lipid by incubating the silyl liposomes with RNA standard at room temperature for fifteen minutes. The average RNA EE of three aliquots of RNA-lipid complex solution was determined for each lipid using the Quant-It RiboGreen fluorescence assay.
as §3

[2] = Liposome zeta potential, dynamic light scattering (silyl-DOTAP liposomes); conditions: three liposome solutions, 1 mg/mL in Milli Q water, DLS
Protocol: as §1, §2, §3

[3] = Average zeta potential of liposomes made from cationic silyl lipids (Tables 1A, 1B)
Description: (§4) For colloidal dispersions, zeta potential is a useful measurement of the difference in electrokinetic potential between the dispersion medium and the stationary layer of fluid attached to the dispersed particle. The magnitude of the zeta potential indicates the degree of electrostatic repulsion between adjacent, similarly charged particles in a dispersion. A high zeta potential is an indicator of stability (resistance to aggregation). Both zeta potential and size can be determined using a zeta Potential Analyzer. Clogston J D et al., Methods Mol Biol. 2011; 697:63-70.
(§5) FIGS. 5A to 5C and TABLE 1A provide an illustration of such empirical determination: the effect of the length of the lipid tail, the end group, and the positioning of the silyl group. In this illustration, other properties of the lipid structure and liposome composition were kept constant. The liposome formulations just contained the cationic silyl lipids indicated, and Milli Q™ purified water.
(§6) FIGS. 7A to 7C and TABLE 1B provide another illustration of how structure of the silyl lipid can affect properties of nanoparticles.
(§7) Structural features such as tail length, positioning of the silicon group (n1, n2), and branching (as in 8,Si, (8)3-DOTMA) can influence liposome properties.

[4] = Average size of liposomes made from cationic silyl lipids (Tables 1A, 1B); conditions: for Avg size: Table 1B, sila-DOTMA analog liposomes; for Avg. Size: Table 1A, liposome formulations of the cationic silyl lipid only in Milli Q purified water
Description: as §4, §5, §6, §7

[5] = Table 1B, sila-DOTMA analog liposomes, two values given
[6] = Table 1A, liposome formulations of the cationic silyl lipid only in Milli Q purified water

size (size by intensity, average ± standard deviation) [1] [nm]	RNA EE (RNA encapsulation efficiency) (RNA standard) [%]	zeta (average zeta potential ± standard deviation) [2]	Compound	also measured
397 ± 322	36 ± 5	75 ± 6 mV	C[N+](C)(C)CC(COC(=O)CCCCCCC[Si](C)(C)c1ccccc1)OC(=O)CCCCCCC[Si](C)(C)c1ccccc1 (stereo not shown) [8SiPh]	size by intensity when excluding large aggregate/outlier [1]: 183±65 nm; large aggregate/outlier in size by intensity distribution of one trial [1]: 1406 nm
–	–	–	CCCCCCCC[Si](C)(C)CCCCCCOCC(C[N+](C)(C)C)OCCCCCC[Si](C)(C)CCCCCCCC (stereo not shown) [6, Si, 8-DOTMA]	Avg. zeta Potential [3, 5]: 64 mV; Avg size [4]: 216 nm
–	–	–	CCCC[Si](C)(C)CCCCCCCC(=O)OCC(C[N+](C)(C)C)OC(=O)CCCCCCC[Si](C)(C)CCCC (stereo not shown) [QP8Si4]	Avg. zeta Potential [3, 6]: 33 mV and 44 mV; Avg. Size [4]: 24 nm
169 ± 1	85 ± 4	88 ± 5 mV	C[N+](C)(C)CC(COC(=O)CCCC[Si](C)(C)C1CCCCC1)OC(=O)CCCC[Si](C)(C)C1CCCCC1 (stereo not shown) [5SiCy]	RNA EE compared with DOTAP (RNA standard): higher EE than DOTAP
–	–	–	CCCCCCCC[Si](C)(C)CCCCC(=O)OCC(C[N+](C)(C)C)OC(=O)CCCC[Si](C)(C)CCCCCCCC (stereo not shown) [QP5Si8]	Avg. zeta Potential [3, 6]: 69 mV and 112 mV; Avg. Size [4]: 38 nm
–	–	–	C[N+](C)(C)CC(COC(=O)CCCC[Si](C)(C)c1ccccc1)OC(=O)CCCC[Si](C)(C)c1ccccc1 (stereo not shown) [QP5SiPh]	Avg. zeta Potential [3, 6]: 62 mV; Avg. Size [4]: 80 nm
106 ± 35	53 ± 8	91 ± 6 mV	C[N+](C)(C)CC(COC(=O)CCCCCCC[Si](C)(C)CCCc1ccccc1)OC(=O)CCCCCCC[Si](C)(C)CCCc1ccccc1 (stereo not shown) [8Si3Ph]	–
171 ± 26	74 ± 6	63 ± 14 mV	CCCCCCCC[Si](C)(C)CCCCC(=O)OCC(C[N+](C)(C)C)OC(=O)CCCC[Si](C)(C)CCCCCCCC (stereo not shown) [5Si8]	RNA EE compared with DOTAP (RNA standard): higher EE than DOTAP
188 ± 16	23 ± 0.2	77 ± 5 mV	C[N+](C)(C)CC(COC(=O)CCCCC[Si](C)(C)C1CCCCC1)OC(=O)CCCCC[Si](C)(C)C1CCCCC1 (stereo not shown) [6SiCy]	–
–	–	–	CCCCCCCCCCC[Si](C)(C)CCCCC(=O)OCC(C[N+](C)(C)C)OC(=O)CCCC[Si](C)(C)CCCCCCCCCCC (stereo not shown) [QP5Si11]	Avg. zeta Potential [3, 6]: 60 mV; Avg. Size [4]: 59 nm
372 ± 93	41 ± 6	91 ± 9 mV	CCCC[Si](C)(C)CCCCCC(=O)OCC(C[N+](C)(C)C)OC(=O)CCCCC[Si](C)(C)CCCC (stereo not shown) [6Si4]	average LNP size compared with DOTAP [1]: noticeably larger average sizes than DOTAP
–	–	–	CCCCCCCC[Si](CCCCCCCC)(CCCCCCCC)CCCCCCCCOCC(C[N+](C)(C)C)OCCCCCCCC[Si](CCCCCCCC)(CCCCCCCC)CCCCCCCC (stereo not shown) [8, Si, (8)3-DOTMA]	Avg. zeta Potential [3, 5]: 64 mV; Avg size [4]: 184 nm
–	–	–	C[N+](C)(C)CC(COC(=O)CCCC[Si](C)(C)C1CCCCC1)OC(=O)CCCC[Si](C)(C)C1CCCCC1 (stereo not shown) [QP5SiCy]	Avg. zeta Potential [3, 6]: 71 mV and 124 mV; Avg. Size [4]: 80 nm
–	–	–	CCCCCCCC[Si](C)(C)CCCCCCCCOCC(C[N+](C)(C)C)OCCCCCCCC[Si](C)(C)CCCCCCCC (stereo not shown) [8, Si, 8-DOTMA]	Avg. zeta Potential [3, 5]: 56 mV and 74 mV; Avg size [4]: 206 nm
314 ± 201	65 ± 2	34 ± 5 mV	CCCCCCCC/C=C\CCCCCCCC(=O)OCC(C[N+](C)(C)C)OC(=O)CCCCCCC/C=C\CCCCCCCC.[Cl-] (stereo not shown) [DOTAP, N-(1-(2,3-dioleoyloxy)propyl)-N,N,N-trimethylammonium chloride, reference compound]	size by intensity when excluding large aggregate/outlier [1]: 198 nm; large aggregate/outlier in size by intensity distribution of one trial [1]: 838.3 nm
221 ± 40	50 ± 7	73 ± 15 mV	CCCCCCCC[Si](C)(C)CCCCCCCC(=O)OCC(C[N+](C)(C)C)OC(=O)CCCCCCC[Si](C)(C)CCCCCCCC (stereo not shown) [8Si8]	RNA EE compared with DOTAP (RNA standard): comparable RNA EEs to DOTAP
–	–	–	CCCCCC[Si](C)(C)CCCCCCCCCCOCC(C[N+](C)(C)C)OCCCCCCCCCC[Si](C)(C)CCCCCC (stereo not shown) [10, Si, 6-DOTMA]	Avg. zeta Potential [3, 5]: 52 mV; Avg size [4]: 65 nm
–	–	–	CCCCCC[Si](C)(C)CCCCCCCC(=O)OCC(C[N+](C)(C)C)OC(=O)CCCCCCC[Si](C)(C)CCCCCC (stereo not shown) [QP8Si6]	Avg. zeta Potential [3, 6]: 62 mV; Avg. Size [4]: 38 nm
208 ± 19	55 ± 3	78 ± 3 mV	C[N+](C)(C)CC(COC(=O)CCCC[Si](C)(C)CCCc1ccccc1)OC(=O)CCCC[Si](C)(C)CCCc1ccccc1 (stereo not shown) [5Si3Ph]	–
275 ± 82	56 ± 10	61 ± 12 mV	C[N+](C)(C)CC(COC(=O)CCCCCCC[Si](C)(C)CCc1ccccc1)OC(=O)CCCCCCC[Si](C)(C)CCc1ccccc1 (stereo not shown) [8Si2Ph]	–
198	44 ± 7	70 ± 2 mV	CCCC[Si](C)(C)CCCCCCCC(=O)OCC(C[N+](C)(C)C)OC(=O)CCCCCCC[Si](C)(C)CCCC (stereo not shown) [8Si4]	–
221 ± 40	59 ± 1	73 ± 4 mV	CCCCCCCCC[Si](C)(C)CCCCCCC(=O)OCC(C[N+](C)(C)C)OC(=O)CCCCCC[Si](C)(C)CCCCCCCCC (stereo not shown) [7Si9]	–
226 ± 75	88 ± 9	77 ± 6 mV	C[N+](C)(C)CC(COC(=O)CCCC[Si](C)(C)c1ccccc1)OC(=O)CCCC[Si](C)(C)c1ccccc1 (stereo not shown) [5SiPh]	RNA EE compared with DOTAP (RNA standard): higher EE than DOTAP
164 ± 36	48 ± 1	84 ± 5 mV	CCCCCC[Si](C)(C)CCCCCCCC(=O)OCC(C[N+](C)(C)C)OC(=O)CCCCCCC[Si](C)(C)CCCCCC (stereo not shown) [8Si6]	–
448 ± 110	76 ± 1	81 ± 3 mV	C[N+](C)(C)CC(COC(=O)CCCCC[Si](C)(C)c1ccccc1)OC(=O)CCCCC[Si](C)(C)c1ccccc1 (stereo not shown) [6SiPh]	average LNP size compared with DOTAP [1]: noticeably larger average sizes than DOTAP; RNA EE compared with DOTAP (RNA standard): higher EE than DOTAP
225 ± 24	–	0 mV and 0 ± 0.05 mV	CCCCCCCCCCC[Si](C)(C)CCCCC(=O)OCC(C[N+](C)(C)C)OC(=O)CCCC[Si](C)(C)CCCCCCCCCCC (stereo not shown) [5Si11]	RNA EE compared with DOTAP (RNA standard): comparable RNA EEs to DOTAP
199 ± 30	49 ± 4	70 ± 3 mV	C[N+](C)(C)CC(COC(=O)CCCCCCC[Si](C)(C)C1CCCCC1)OC(=O)CCCCCCC[Si](C)(C)C1CCCCC1 (stereo not shown) [8SiCy]	–
198	55 ± 4	76 ± 2 mV	C[N+](C)(C)CC(COC(=O)CCCC[Si](C)(C)CCc1ccccc1)OC(=O)CCCC[Si](C)(C)CCc1ccccc1 (stereo not shown) [5Si2Ph]	–
